{"source": "patent US20130022612A1", "about": "“METHODS AND COMPOSITIONS FOR MALARIA PROPHYLAXIS” (priority 2004, published 2013)", "key": {"[1]": {"test_system": "P. berghei sporozoites", "assay_type": "cell-based, Plasmodium berghei", "procedure": "%invasion=total sporozites−extracellular sporozites×100/total sporozites\nInvasion assays were performed as previously described (Pinzon-Ortiz, C., et al.) with some modifications. […] Cells were then washed, fixed, and sporozoites were stained with a double staining assay that distinguishes between intracellular and extracellular sporozoites (Renia, L., et al.). […]"}, "[2]": {"test_system": "P. berghei sporozoites", "assay": "Sporozoite gliding motility assay, P. berghei", "assay_type": "cell-based, Plasmodium berghei", "procedure": "Glass 8-chambered Lab-tek wells (Nalgene) were coated with 10 μg/ml 3D11 in PBS overnight at 25° C. and then washed three times with PBS. 2×10^4 P. berghei sporozoites were incubated with 50 μM allicin in DMEM without Cys/Met for ten minutes at 28° C., the medium removed and replaced with DMEM/3% BSA containing 50 μM or 4.2 μM allicin before sporozoites were added to the coated Lab-Tek wells. The sporozoites were incubated for one hour at 37° C., the medium was removed, and the wells were fixed with 4% paraformaldehyde, washed, blocked with PBS/1% BSA, and incubated with biotinylated 3D11 followed by Streptavidin-FITC (1:100 dilution; Amersham Pharmacia). All incubations were performed at 37° C. for one hour. Controls included untreated sporozoites and sporozoites added to wells in the presence of 1 μM cytochalasin D. For each group, gliding motility was assessed by determining the percentage of sporozoites associated with trails, and for those sporozoites with trails, counting the number of circles in each trail."}, "[3]": {"test_system": "P. yoelii sporozoites", "assay": "Sporozoite infectivity in vivo (liver 18S rRNA by RT and real time PCR)", "set-up": "species or system Plasmodium yoelii in Swiss/Webster mice", "procedure": "Swiss/Webster mice were given three intraperitoneal injections of DMEM with or without E-64 (50 mg/kg/injection) at 16 hours, 2.5 hours, and 1 hour prior to intravenous injection of 15,000 P. yoelii sporozoites. Forty hours later, livers were harvested and total RNA was isolated using Tri-Reagent (Molecular Research Center, Cincinnati, Ohio). Malaria infection was quantified using reverse-transcription (RT) followed by real time PCR as outlined in (Bruna-Romero, et al. (2001)). RTs were performed with […] of total RNA and random hexamers (PE Applied Biosystems, Foster City, Calif.). Real time PCR was performed using primers that recognize P. yoelii-specific sequences within the 18S rRNA (Bruna-Romero, et al. (2001)) and the SYBR Green Core PCR kit (PE Applied Biosystems). Ten-fold dilutions of a plasmid construct containing the P. yoelii 18S gene were used to create a standard curve.\nSwiss/Webster mice were given either 5 or 8 mg/kg of allicin (in DMEM without Cys/Met) intravenously (i.v.) at 60 minutes, 30 minutes, or immediately before i.v. injection of 10^4 P. yoelii sporozoites. Forty hours later, livers were harvested, total RNA was isolated, and malaria infection was quantified using reverse transcription (RT) followed by real time PCR using primers that recognize P. yoelii-specific sequences within the 18S rRNA as previously described (Bruna-Romero, O., et al.). Ten-fold dilutions of a plasmid construct containing the P. yoelii 18S rRNA gene were used to create a standard curve. For allicin preincubation experiments, P. yoelii sporozoites were preincubated with or without 50 μM allicin (in DMEM without Cys/Met) for ten minutes at 28° C. and diluted 12-fold with medium before i.v. injection into mice. All in vivo data were analyzed using the Student t-test for unpaired samples."}, "[4]": {"conditions": "50 μM allicin ten minutes, then diluted to 4.2 μM"}}}
{"smiles": "C=CCS[S+]([O-])CC=C", "note": "(stereo not drawn) [allicin]", "values": [{"measurement": "sporozoite invasion of cells", "setting": "[1]; 10, 25, and 50 μM allicin pretreatment", "value": "inhibited sporozoite invasion of cells in a dose dependent manner"}, {"measurement": "effect on invasion, host cells pretreated", "setting": "[1]; Hepa 1-6 cells preincubated with 50 μM allicin one hour, untreated sporozoites", "value": "no effect on invasion"}, {"measurement": "gliding motility", "setting": "[2]; [4]", "value": "no effect on gliding motility"}, {"measurement": "percentage gliding and number of circles per trail versus controls", "setting": "[2]; [4]", "value": "the same"}, {"measurement": "gliding motility", "setting": "[2]; kept in 50 μM allicin for the duration of the assay", "value": "completely inhibited"}, {"measurement": "sporozoite infectivity in vivo versus untreated controls", "setting": "[3]; 8 mg/kg allicin i.v. just before injection of sporozoites", "value": "significantly decreased infectivity"}, {"measurement": "protection in vivo", "setting": "[3]; 8 mg/kg allicin i.v. one hour before sporozoites", "value": "little protection"}, {"measurement": "sporozoite infectivity in vivo versus untreated mice", "setting": "[3]; 8 mg/kg allicin i.v. thirty minutes before sporozoites", "value": "decreased infectivity"}, {"measurement": "reduction in infection", "setting": "[3]; allicin 5 mg/kg i.v. one minute before sporozoites", "value": 10, "unit": "fold"}, {"measurement": "decrease in infection compared to controls", "setting": "[3]; allicin 8 mg/kg i.v. one minute before sporozoites", "value": 1000, "unit": "fold"}, {"measurement": "malaria infection in mice injected with pretreated sporozoites", "setting": "[3]; sporozoites preincubated with 50 μM allicin ten minutes, diluted 12-fold", "value": "no evidence of malaria infection"}]}
{"smiles": "CC(C)C[C@H](NC(=O)[C@H]1O[C@@H]1C(=O)O)C(=O)NCCCCN=C(N)N", "note": "(relative stereo) [E-64, L-trans-epoxysuccinyl-leucylamide-[4-guanido]-butane]", "values": [{"measurement": "effect on sporozoite invasion, target cells pretreated", "setting": "[1]; Hepa 1-6 cells pretreated with E-64, untreated sporozoites", "value": "no inhibitory effect on sporozoite invasion"}, {"measurement": "number of extracellular (attached) sporozoites", "setting": "[1]; in the presence of E-64", "value": "always enhanced"}, {"measurement": "inhibition of invasion", "setting": "[1]; sporozoites preincubated two hours with 10 mM E-64, Hepa 1-6 cells, one hour", "value": 90, "unit": "%"}, {"measurement": "intracellular sporozoites in the presence of inhibitor", "setting": "[1]; wild type and RCon sporozoites, Hepa 1-6, 1 hr", "value": "few intracellular wild type and RCon sporozoites"}, {"measurement": "average number of circles per gliding sporozoite", "setting": "[2]; E-64 treated versus untreated sporozoites", "value": "not different"}, {"measurement": "percentage of sporozoites that exhibited gliding motility", "setting": "[2]; P. berghei, preincubated with 10 mM E-64", "value": "no effect"}, {"measurement": "protection from malaria infection (liver P. yoelii 18S rRNA)", "setting": "[3]; E-64 50 mg/kg/injection intraperitoneal at 16 hours, 2.5 hours, 1 hour before 15,000 sporozoites i.v.", "value": "completely protected from malaria infection"}]}
